In this experiment the test system is fibroblasts. Nature of the experiment: collagen metabolism / amino acid up-take by fibroblasts. Type of experiment: cell-based. The source says:
[…]. An improved synthesis of collagen means a faster substitution of the degraded old fibers of collagen with the new ones.

For `C[C@H]1[C@H](C)CC[C@]2(C(=O)O)CC[C@]3(C)C(=CC[C@@H]4[C@@]5(C)C[C@@H](O)[C@H](O)[C@@](C)(CO)[C@@H]5CC[C@]43C)[C@H]12` [asiatic acid], the “activity on collagen metabolism” value is recorded as “strong activity”; the “capability of the fibroblasts to up-take amino acids such as L-Proline and L-Hydroxyproline” value is on record as “improve”.
With `C[C@H]1[C@H](C)CC[C@]2(C(=O)O)CC[C@]3(C)C(=CC[C@@H]4[C@@]5(C)C[C@@H](O)[C@H](O)[C@@](C)(CO)[C@@H]5[C@H](O)C[C@]43C)[C@H]12` [madecassic acid], the “activity on collagen metabolism” value is recorded as “strong activity”; the “capability of the fibroblasts to up-take amino acids such as L-Proline and L-Hydroxyproline” value was “improve”.

Source of the values: patent US7214395B2, “Pharmaceutical and cosmetic composition against skin aging” (Indena S.p.A., priority 2001, dated 2007).
